# Experimental data as given in patent publication US5072002A, “Synthesis of cholesterol-lowering agents” (The Governors of the University of Alberta, priority 1989, dated 1991).
# Tests used:
# [1] = administered to human beings; cited from earlier work
# [2] = biological target: T1, Rat Liver 3-hydroxy-3-methylglutarylcoenzyme A Reductase (Rattus norvegicus, UniProt P51639); assay: Assay of HMGCoA reductase (rat liver microsomes), in vitro; format: biochemical; conditions: 20 min, 37° C., DMSO control 652, none 1254
# T1 construct: rat liver microsome (75 μg protein); from tissue; host or cells: rat liver microsomes
# T1 sequence (P51639 1-887): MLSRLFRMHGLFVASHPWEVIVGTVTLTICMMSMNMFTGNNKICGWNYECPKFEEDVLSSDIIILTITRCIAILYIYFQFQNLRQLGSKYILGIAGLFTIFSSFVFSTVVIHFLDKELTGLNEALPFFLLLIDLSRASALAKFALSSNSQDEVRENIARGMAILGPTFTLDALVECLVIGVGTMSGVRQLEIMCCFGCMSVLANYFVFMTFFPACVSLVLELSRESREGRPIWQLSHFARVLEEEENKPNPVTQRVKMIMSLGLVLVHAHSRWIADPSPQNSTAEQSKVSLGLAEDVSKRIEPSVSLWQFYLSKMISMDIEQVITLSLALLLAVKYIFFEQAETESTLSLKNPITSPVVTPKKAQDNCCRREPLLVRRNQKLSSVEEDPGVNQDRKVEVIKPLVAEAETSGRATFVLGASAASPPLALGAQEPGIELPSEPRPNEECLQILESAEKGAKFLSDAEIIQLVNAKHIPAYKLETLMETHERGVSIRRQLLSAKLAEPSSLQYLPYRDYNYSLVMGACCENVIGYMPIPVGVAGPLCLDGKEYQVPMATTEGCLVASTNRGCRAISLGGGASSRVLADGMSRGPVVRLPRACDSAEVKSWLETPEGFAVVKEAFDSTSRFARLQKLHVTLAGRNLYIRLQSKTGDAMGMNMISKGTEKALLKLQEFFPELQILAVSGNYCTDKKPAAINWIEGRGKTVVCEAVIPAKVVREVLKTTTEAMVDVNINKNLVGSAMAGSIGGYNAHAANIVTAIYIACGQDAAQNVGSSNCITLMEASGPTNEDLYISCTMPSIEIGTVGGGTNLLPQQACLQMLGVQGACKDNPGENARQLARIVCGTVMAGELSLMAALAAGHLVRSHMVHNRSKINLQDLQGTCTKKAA
# Experimental: Ethylcompactin and mevinolin were dissolved in DMSO. Aliquots (10 μl) of each were incubated with 50 μl of 50 mM Pot. phosphate pH 7.4, 70 mM KCl, 30 mM EDTA, 10 mM DTT for 30 min at 37° C. to delactonize the compounds. Control incubations were done with 10 μL DMSO.
# Assay of HMGCoA reductase was carried out as described by George and Ramasarma, [George R., Ramasarma, T., Biochem. J. (1977) 162:493-499]. At the end of 30 min, incubation for […], rat liver microsome (75 μg protein) were added to each tube along with glucose-6-phosphate (577 μM) glucose-6-phosphate dehydrogenase (0.05 unit/assay) and MADPH ([…]) and incubated for an additional 10 min at 37° C.
# HMGCoA reductase reaction was initiated by the additon of 3-^14 C-HMGCoA ([…], final) and carried out for 20 min at 37° C. in a total volume of 100 μl. The reaction was terminated by the addition of 5N HCl (25 μl) containing known amounts of ^3 -H-Mevalonolactone as internal standard and non-radioactive mevalonolactone (0.6 mg/assay) as carrier. Mevalonic acid formed in the assay was allowed to lactonize by incubating the mixture for 30 min at 37° C. The precipitated protein was removed by centrifugation in a microfuge. An aliquot of the supernatant (40 μl) was applied on silica gel G (0.25 mm thickness) plates and the chromatogram developed with Acetone:Benzene (3:2). The spot corresponding to the mevalonolactone (Rf 0.5) was scraped off and the radioactivity estimated by liquid scintillation counting. Mevalonic acid formed was calcualted from the recovery of internal standard. Microsomal protein was estimated by the method of Lowry [J. Biol. Chem. (1951) 193:265-275 ] after precipitation according to Bensadoun and Weinstein [Anal. Biochem. (1976) 70:241-250]. The specific activity of HMGCoA reductase is expressed as p moles of mevalonic acid formed per minute per mg of microsomal protein.
# [3] = based on existing biological data; cited from earlier work
# [4] = 100 nM in assay (in 10 μl DMSO)
SMILES,concentration in the blood of LDL cholesterol [1],HMGCoA Reductase Activity ([2]; 1 nM in assay (in 10 μl DMSO)),"HMGCoA Reductase Activity [2, 4]",HMGCoA Reductase Activity ([2]; 1 μM in assay (in 10 μl DMSO)),HMGCoA Reductase Activity ([2]; 10 μM in assay (in 10 μl DMSO)),activity in lowering LDL cholesterol levels as compared to Compactin [3]
"CC[C@H](C)C(=O)O[C@H]1CCC=C2C=C[C@H](C)[C@H](CC[C@@H]3C[C@@H](O)CC(=O)O3)[C@H]21 [Compactin, (+)-Compactin]",reduced,–,–,–,–,–
"CC[C@H]1C=C2C=C[C@H](C)[C@H](CC[C@@H]3C[C@@H](O)CC(=O)O3)[C@H]2[C@@H](OC(=O)[C@@H](C)CC)C1 [Ethyl Compactin, (+)-3-Ethylcompactin]",–,730 pmol Mevalonate formed/min/mg,361 pmol Mevalonate formed/min/mg,182 pmol Mevalonate formed/min/mg,20 pmol Mevalonate formed/min/mg,–
"CC[C@H](C)C(=O)O[C@H]1C[C@@H](C)C=C2C=C[C@H](C)[C@H](CC[C@@H]3C[C@@H](O)CC(=O)O3)[C@H]21 [Mevinolin, (+)-Mevinolin]",reduced,609 pmol Mevalonate formed/min/mg,303 pmol Mevalonate formed/min/mg,113 pmol Mevalonate formed/min/mg,52 pmol Mevalonate formed/min/mg,several times more active
